From patent EP0424901A1, “Dihydropyridine derivatives and pharmaceutical compositions” (THE GREEN CROSS CORPORATION, priority 1989, dated 1991)
Structures can show the parent of a compound that is named as a salt. Where two headings read alike, the source gives them in different places.

Tested on: male Wistar rats
Test: Blood pressure in anesthetized rats after intravenous bolus administration
Type: in vivo
Conditions: tail vein bolus; for ED30: Rattus norvegicus, iv; for DBP % change: diastolic blood pressure relative to that before administration (=100%); for DBP % change / SBP % change: mean ± SE, n=4; for SBP % change: systolic blood pressure relative to that before administration (=100%)
Description: The subject rats anesthetized with pentobarbital-Na (50 mg/kg, i.p.) were fixed at the dorsal position, and the blood pressure was successively recorded on a polygraph via polyethylene catheter inserted in left common carotid artery and piezoelectric transducer. The drug was bolus- administered at a dose of 1 ml/kg through a wing needle dwelled in tail vein.
As the subject animal, male Wistar rats (about 300 g body weight, 4 rats per group) were used.
The test drug was prepared by dissolving 10 mg thereof in 0.3 ml of ethanol and 0.1 ml of Tween 80 and diluting with saline.

[1] = estimated dose necessary for 30% reduction of diastolic blood pressure, read-out: DBP ED30
[2] = estimated dose necessary for 30% reduction of systolic blood pressure, read-out: SBP ED30

Row | SMILES | ED30 [1] [mg/kg] | ED30 [2] [mg/kg] | DBP % change (dose 30 µg/kg) [%] | DBP % change (dose 100 µg/kg) [%] | DBP % change (dose 300 µg/kg) [%] | SBP % change (dose 30 µg/kg) [%] | SBP % change (dose 100 µg/kg) [%] | SBP % change (dose 300 µg/kg) [%] | DBP % change (dose 1000 µg/kg) [%] | SBP % change (dose 1000 µg/kg) [%] | DBP % change (dose 10 µg/kg) [%] | SBP % change (dose 10 µg/kg) [%]
1 | COC(=O)C1=C(C)NC(C)=C(C(=O)OCCc2ccc(N3CCN(C(c4ccccc4)c4ccccc4)CC3)cc2)C1c1cccc([N+](=O)[O-])c1 (racemic) [compound 3, reference compound] | 0.046 | 0.63 | 75±5 | 61±2 | 53±3 | 79±1 | 76±4 | 72±3 |  |  |  | 
2 | COC(=O)C1=C(C)NC(C)=C(C(=O)OCCc2ccc(N3CCN(C(c4ccccc4)c4ccccc4)CC3)cc2)[C@@H]1c1cccc([N+](=O)[O-])c1 [(R)-(-)-compound 3, (R)-(-)-4-(4-benzhydrylpiperadino)phenetyl methyl 1,4-dihydro-2,6-dimethyl-4-(3-nitrophenyl)-3,5-pyridinedicarboxylate hydrochloride] |  |  |  | 94±1 |  |  | 93±2 |  | 91±2 | 93±3 |  | 
3 | COC(=O)C1=C(C)NC(C)=C(C(=O)OCCc2ccc(N3CCN(C(c4ccccc4)c4ccccc4)CC3)cc2)[C@H]1c1cccc([N+](=O)[O-])c1 [(S)-(+)-compound 3, (S)-(+)-4-(4-benzhydrylpiperadino)phenetyl methyl 1,4-dihydro-2,6-dimethyl-4-(3-nitrophenyl)-3,5-pyridinedicarboxylate hydrochloride] | 0.037 | 0.16 | 74±2 | 55±4 |  | 86±3 | 71±5 |  |  |  | 89±1 | 86±3
